Results on 5 compounds are retold here after US11324767B2, “Drug combination treatments using bone-targeting therapeutics for bone and bone-related disease” (MBC Pharma, Inc., priority 2017, dated 2022).

A short description of data set [1]: tolerability in mice (weight loss, nephrotoxicity).
Method: (§1) 143B-luc cells were then implanted into nude mice via intratibial injection, creating an orthotopic model for OS. The presence and growth of tumors was confirmed with in vivo imaging (Xenogen). Mice (N=8/treatment group) were then treated with 60 mg/kg GEM twice weekly and 15 mg/kg DTX once weekly, alone or in combination (15 mg/kg DTX with 20, 40 or 60 mg/kg GEM) and monitored for weight loss and tumor growth.
(§2) Tolerability for IB and GEM-IB was tested in a mouse model system. […] To ensure the health of mice throughout a longer study, doses were reduced to 6 mg/kg IB and equimolar doses of GEM-IB (14 mg/kg) and GEM (6 mg/kg) with 15 mg/kg DTX. Mice were implanted with the 143B-luc cells via intratibial injection and treatment started 4 days after implantation.
(§3) Mice were then treated with GEM-IB, GEM-IB with DTX, or the individual agents of GEM, DTX, or IB.
In another data set the test system is 143B-luc. Put plainly: cell culture treatment of human OS cell line 143B-luc (IC50, Bliss analysis).
Data set [2] can be described thus: in vivo MicroCT of bone in OS mouse model. The settings on record: in vivo MicroCT 22 days after starting treatment; 6 mg/kg IB or 14 mg/kg GEM-IB.
Method: To ensure the health of mice throughout a longer study, doses were reduced to 6 mg/kg IB and equimolar doses of GEM-IB (14 mg/kg) and GEM (6 mg/kg) with 15 mg/kg DTX. Mice were implanted with the 143B-luc cells via intratibial injection and treatment started 4 days after implantation.
Data set [3] in a line: clinically established MTD of MBC-11. The settings on record: 2-hour infusion for up to 5 consecutive days. Format: in vivo, Human. On the procedure:
The current clinically established MTD of MBC-11 indicates the method should be used where MBC-11 is administered at or below 5/mg/kg/day via a 2-hour infusion for up to 5 consecutive days and Xofigo is administered at or below the standard of care dosing regimen.

A further data set relates to bone lesions. Put plainly: phase I clinical trials of MBC-11 in patients with CIBD, bone lesions imaged by 18F-FDG-PET/CT. The settings on record: 15 patients, after MBC-11 therapy.
Data set [4] concerns prostate cancer induced bone disease. In words: in vivo model of prostate cancer induced bone disease.
Method: (§4) MBC-11 was tested in recently completed phase I clinical trials in patients with CIBD.
Data set [5] in a line: MTD and tolerability of GEM-IB dosing regimens. The data set is classed as in vivo. The source says: The MTD of the conjugate of Gemcitabine-to-Ibandronate is lower than that of MBC-1. Therefore, a conjugate of Gemcitabine-to-Ibandronate can be administered at or below 5/mg/kg/day via a 2-hour infusion for up to 5 consecutive days and Xofigo administered at or below its standard of care dosing regimen.

For data set [6] the following is noted: mouse, in vivo.
Method: as §1, §2, §3
The next data set concerns 143B-luc cells. In words: orthotopic OS model: Kaplan-Meier survival until euthanasia due to large tumor size. The settings on record: euthanized when largest tumor-laden leg diameter reached 10 mm above normal leg diameter (FIG. 4).
[7] abbreviates: 60 mg/kg GEM twice weekly alone, 15 mg/kg DTX once weekly alone, or 15 mg/kg DTX with 20 or 40 mg/kg GEM, N=8/group.

A word on the IC50: it is the concentration needed to halve the response being measured. In general, MTD refers to the highest dose tested that stayed within the study's limit of toxicity.

Like-named read-outs stand apart in the source and are kept apart here.

From the text for 143B-luc cells: Mice were euthanized when largest tumor-laden leg diameter reached 10 mm above normal leg diameter. […] Mice euthanized for weight loss are not indicated as deaths in this chart, and are indicated as tick marks on day euthanized.
Method for bone lesions: as §4

On to `Nc1ccn([C@@H]2O[C@H](CO)[C@@H](O)C2(F)F)c(=O)n1` [GEM, Gemcitabine], for which, in data set [1] (setting [7]), the weight loss entry is given as “did not exhibit any weight loss”. Besides, the IC50 in the data set with 143B-luc (Homo sapiens) amounted to 9 nM.
With `CCCCCN(C)CCC(O)(P(=O)(O)O)P(=O)(O)O` [IB, ibandronate], in [2], the bone volume density entry was “high” and the trabecular number entry is given as “high”. In addition, the weight loss entry in data set [1] (IB 12 mg/kg twice weekly) is recorded as “only minimal weight loss”. Further, the nephrotoxicity entry in [1] (at higher levels) is reported as “possible nephrotoxicity”. For the same compound, the tolerability result in [1] (at lower doses) is “well tolerated”.
With `CC(O)(P(=O)(O)O)P(=O)(O)OP(=O)(O)OC[C@H]1O[C@@H](n2ccc(N)nc2=O)[C@@H](O)[C@@H]1O` (stereo partly shown) [MBC-11], the “dose indicated by the clinically established MTD” value in data set [3] is listed as “up to 5 /mg/kg/day”. The “bone lesions with a significant reduction (>25%) in glucose avidity” value in the data set on bone lesions (206 bone lesions imaged (18F-FDG-PET/CT)) is recorded as 111 lesions. The “bone lesions significantly reduced in activity” value in the data set on bone lesions (206 bone lesions imaged) turned out to be 53.8%.
On to `CCCCCN(C)CCC(O)(P(=O)(O)O)P(=O)(O)OP(=O)(O)OC[C@H]1O[C@@H](n2ccc(N)nc2=O)C(F)(F)[C@@H]1O` (stereo partly shown) [GEM-IB], for which, in data set [4] (in vivo), the “activity compared to GEM-etidronate (GEM-ET), MBC-11 and cytarabine-IB” value is listed as “more active”; the metastases after treatment entry is given as “significantly reduced”. In addition, in data set [4] (study not designed for a survival endpoint), the survival result was “improved survival trend”. Besides, in data set [5] (Monday, Wednesday and Friday dosing for three weeks at twice the 6 mg/kg daily dose), the tolerability entry is listed as “well tolerated”. In addition, the MTD in [5] (dosing for five sequential days) is recorded as 6 mg/kg/day. In addition, the “MTD compared with MBC-1” value in [5] (in vivo) is “lower”. In addition, in data set [2], the bone volume density result was “high” and the trabecular number entry is on record as “high”. Besides, in data set [6], the nephrotoxicity entry is recorded as “possible nephrotoxicity” and the tolerability result was “well tolerated”. Also, the “day after treatment initiation from which mice were sacrificed” value in the data set on 143B-luc cells was 28 days.
`CC(=O)O[C@@]12CO[C@@H]1C[C@H](O)[C@@]1(C)C(=O)[C@H](O)C3=C(C)[C@@H](OC(=O)[C@H](O)[C@@H](NC(=O)OC(C)(C)C)c4ccccc4)C[C@@](O)([C@@H](OC(=O)c4ccccc4)[C@H]21)C3(C)C` [DTX, docetaxel]: in data set [1] (setting [7]), the weight loss entry is reported as “did not exhibit any weight loss”. In addition, the IC50 in the data set with 143B-luc (143B-luc cells in culture, individual drug agent) turned out to be 72 nM; in the data set with 143B-luc (read-out: IC50 of DTX in the presence of GEM, 143B-luc cells in culture, in the presence of 1 nM GEM), 0.12 nM. Also, the “reduction of IC50 of DTX” value in the data set with 143B-luc (in the presence of 1 nM GEM versus DTX alone) is reported as 600 fold.
